# Test results: US20090069300A1, “ISOQUINOLINYL AND ISOINDOLINYL DERIVATIVES AS HISTAMINE-3 ANTAGONISTS” (Wyeth, priority 2007, published 2009)
# Where a name gives a salt, the structure may show the parent alone.
row,SMILES,melting point [°C]
1,"CNC(=O)c1ccc(-c2ccc3c(c2)C(=O)N(CCN2CCC[C@H]2C)CC3)cc1 (as salt: hydrochloride) [Example 83, N-methyl-4-(2-{2-[(2R)-2-methylpyrrolidin-1-yl]ethyl}-1-oxo-1,2,3,4-tetrahydroiso-quinolin-7-yl)benzamide]",262 to 263
2,"CC(C)NC(=O)c1ccc(-c2ccc3c(c2)C(=O)N(CCN2CCC[C@H]2C)CC3)cc1 (as salt: hydrochloride) [Example 85, N-isopropyl-4-(2-{2-[(2R)-2-methylpyrrolidin-1-yl]ethyl}-1-oxo-1,2,3,4-tetrahydroiso-quinolin-7-yl)benzamide]",248 to 250
3,"C[C@@H]1CCCN1CCN1CCc2ccc(-c3ccc(C(=O)N4CCCC4)cc3)cc2C1=O (as salt: hydrochloride) [Example 86, 2-{2-[(2R)-2-methylpyrrolidin-1-yl]ethyl}-7-[4-(pyrrolidin-1-ylcarbonyl)phenyl]-3,4-dihydroisoquinolin-1(2H)-one]",214 to 215
4,"CNC(=O)c1ccc(Oc2ccc3c(c2)CCN(CCN2CCCC2)C3=O)nc1 (as salt: hydrochloride) [Example 101, N-Methyl-6-(1-oxo-2-(2-(pyrrolidin-1-yl)ethyl)-1,2,3,4-tetrahydro-isoquinolin-6-yloxy)nicotinamide hydrochloride]",228 to 230
5,"C[C@@H]1CCCN1CCN1CCc2cc(OCc3ccc(C#N)cc3)ccc2C1=O (as salt: hydrochloride) [Example 120, (R)-4-((2-(2-(2-Methylpyrrolidin-1-yl)ethyl)-1-oxo-1,2,3,4-tetra-hydroisoquinolin-6-yloxy)methyl)benzonitrile hydrochloride]",212 to 214
6,"O=C(NCCCl)c1ccc(-c2ccc3c(c2)CCN(CCN2CCCC2)C3=O)cc1 (as salt: hydrochloride) [Example 123, N-(2-chloroethyl)-4-[1-oxo-2-(2-pyrrolidin-1-ylethyl)-1,2,3,4-tetrahydroisoquinolin-6-yl]benzamide]",236 to 237
7,"O=C(c1ccc(-c2ccc3c(c2)CCN(CCN2CCCC2)C3=O)c(F)c1)N1CCCC1 (as salt: hydrochloride) [Example 138, 6-[2-fluoro-4-(pyrrolidin-1-ylcarbonyl)phenyl]-2-(2-pyrrolidin-1-ylethyl)-3,4-dihydroisoquinolin-1(2H)-one]",225 to 226
8,"CNC(=O)c1ccc(-c2ccc3c(c2)CCN(CCN2CCCC2)C3=O)c(F)c1 (as salt: hydrochloride) [Example 139, 3-fluoro-N-methyl-4-[1-oxo-2-(2-pyrrolidin-1-ylethyl)-1,2,3,4-tetrahydroisoquinolin-6-yl]benzaimde]",188 to 190
9,"C[C@@H]1CCCN1CCN1CCc2cc(C(=O)N3CCCCCC3)ccc2C1=O (as salt: hydrochloride) [Example 144, 6-(azepan-1-ylcarbonyl)-2-{2-[(2R)-2-methylpyrrolidin-1-yl]ethyl}-3,4-dihydroisoquinolin-1(2H)-one]",192 to 193
10,"C[C@@H]1CCCN1CCN1CCc2cc(C(=O)NC3CCC3)ccc2C1=O (as salt: hydrochloride) [Example 145, N-cyclobutyl-2-{2-[(2R)-2-methylpyrrolidin-1-yl]ethyl}-1-oxo-1,2,3,4-tetrahydroisoquinoline-6-carboxamide]",214 to 215
11,"C[C@@H]1CCCN1CCN1CCc2cc(C(=O)NC3CCCCC3)ccc2C1=O (as salt: hydrochloride) [Example 147, N-cyclohexyl-2-{2-[(2R)-2-methylpyrrolidin-1-yl]ethyl}-1-oxo-1,2,3,4-tetrahydroisoquinoline-6-carboxamide]",140 to 141
12,"C[C@@H]1CCCN1CCN1CCc2cc(C(=O)NC3Cc4ccccc4C3)ccc2C1=O (as salt: hydrochloride) [Example 148, N-(2,3-dihydro-1H-inden-2-yl)-2-{2-[(2R)-2-methylpyrrolidin-1-yl]ethyl}-1-oxo-1,2,3,4-tetrahydroisoquinoline-6-carboxamide]",145 to 146
13,"C[C@@H]1CCCN1CCN1CCc2cc(C(=O)NC3CCCC3)ccc2C1=O (as salt: hydrochloride) [Example 149, N-cyclopentyl-2-{2-[(2R)-2-methylpyrrolidin-1-yl]ethyl}-1-oxo-1,2,3,4-tetrahydroisoquinoline-6-carboxamide]",219 to 220
14,"C[C@@H]1CCCN1CCN1CCc2cc(C(=O)N3CCCC3)ccc2C1=O (as salt: hydrochloride) [Example 151, 2-{2-[(2R)-2-methylpyrrolidin-1-yl]ethyl}-6-(pyrrolidin-1-ylcarbonyl)-3,4-dihydroisoquinolin-1(2H)-one]",166 to 167
15,"C[C@@H]1CCCN1CCN1CCc2cc(C(=O)N3Cc4ccccc4C3)ccc2C1=O (as salt: hydrochloride) [Example 152, 6-(1,3-dihydro-2H-isoindol-2-ylcarbonyl)-2-{2-[(2R)-2-methylpyrrolidin-1-yl]ethyl}-3,4-dihydroisoquinolin-1(2H)-one]",109 to 110
16,"O=C(c1ccc2c(c1)CCN(CCN1CCCC1)C2=O)N1CCCCC1 (as salt: hydrochloride) [Example 155, 6-(piperidine-1-carbonyl)-2-(2-(pyrrolidin-1-yl)ethyl)-3,4-dihydroisoquinolin-1(2H)-one]",144 to 147
17,"O=C(c1ccc2c(c1)CCN(CCN1CCCC1)C2=O)N1Cc2ccccc2C1 (as salt: hydrochloride) [Example 156, 6-(isoindoline-2-carbonyl)-2-(2-(pyrrolidin-1-yl)ethyl)-3,4-dihydroisoquinolin-1(2H)-one]",220 to 221

# Results, then the compound that gave them:
row,melting point [°C],SMILES
1,171 to 172,"C[C@H]1CCCN1C(=O)c1ccc(-c2ccc3c(c2)CCN(CCN2CCCC2)C3=O)cc1 (as salt: hydrochloride) [Example 81, 6-(4-{[(2S)-2-methylpyrrolidin-1-yl]carbonyl}phenyl)-2-(2-pyrrolidin-1-ylethyl)-3,4-dihydroisoquinolin-1(2H)-one]"
2,170 to 171,"C[C@@H]1CCCN1C(=O)c1ccc(-c2ccc3c(c2)CCN(CCN2CCCC2)C3=O)cc1 (as salt: hydrochloride) [Example 82, 6-(4-{[(2R)-2-methylpyrrolidin-1-yl]carbonyl}phenyl)-2-(2-pyrrolidin-1-ylethyl)-3,4-dihydroisoquinolin-1(2H)-one]"
3,190 to 191,"CON(C)C(=O)c1ccc(-c2ccc3c(c2)CCN(CCN2CCCC2)C3=O)cc1 (as salt: hydrochloride) [Example 102, N-methoxy-N-methyl-4-(1-oxo-2-(2-(pyrrolidin-1-yl)ethyl)-1,2,3,4-tetrahydroisoqui-nolin-6-yl)benzamide]"
4,211 to 213.5,"O=C(NCc1cccs1)c1ccc(-c2ccc3c(c2)CCN(CCN2CCCC2)C3=O)cc1 (as salt: hydrochloride) [Example 121, 4-[1-oxo-2-(2-pyrrolidin-1-ylethyl)-1,2,3,4-tetrahydroisoquinolin-6-yl]-N-(2-thienylmethyl)benzamide]"
5,272 to 274,"O=C(c1ccc(-c2ccc3c(c2)CCN(CCN2CCCC2)C3=O)cc1)N1CCOCC1 (as salt: hydrochloride) [Example 122, 6-[4-(morpholin-4-ylcarbonyl)phenyl]-2-(2-pyrrolidin-1-ylethyl)-3,4-dihydroisoquinolin-1(2H)-one]"
6,200 to 201,"CCN(C)C(=O)c1ccc(-c2ccc3c(c2)CCN(CCN2CCCC2)C3=O)cc1 (as salt: hydrochloride) [Example 124, N-ethyl-N-methyl-4-[1-oxo-2-(2-pyrrolidin-1-ylethyl)-1,2,3,4-tetrahydroisoquinolin-6-yl]benzamide]"
7,211 to 213,"O=C(NCc1ccco1)c1ccc(-c2ccc3c(c2)CCN(CCN2CCCC2)C3=O)cc1 (as salt: hydrochloride) [Example 125, N-(2-furylmethyl)-4-[1-oxo-2-(2-pyrrolidin-1-ylethyl)-1,2,3,4-tetrahydroisoquinolin-6-yl]benzamide]"
8,232 to 233,"COC[C@H](C)NC(=O)c1ccc(-c2ccc3c(c2)CCN(CCN2CCCC2)C3=O)cc1 (as salt: hydrochloride) [Example 126, N-[(1S)-2-methoxy-1-methylethyl]-4-[1-oxo-2-(2-pyrrolidin-1-ylethyl)-1,2,3,4-tetrahydroisoquinolin-6-yl]benzamide]"
9,193 to 195,"COC[C@@H]1CCCN1C(=O)c1ccc(-c2ccc3c(c2)CCN(CCN2CCCC2)C3=O)cc1 (as salt: hydrochloride) [Example 128, 6-(4-{[(2S)-2-(methoxymethyl)pyrrolidin-1-yl]carbonyl}phenyl)-2-(2-pyrrolidin-1-ylethyl)-3,4-dihydroisoquinolin-1(2H)-one]"
10,284 to 285,"O=C(Nc1nccs1)c1ccc(-c2ccc3c(c2)CCN(CCN2CCCC2)C3=O)cc1 (as salt: hydrochloride) [Example 130, 4-[1-oxo-2-(2-pyrrolidin-1-ylethyl)-1,2,3,4-tetrahydroisoquinolin-6-yl]-N-1,3-thiazol-2-ylbenzamide]"
11,228 to 229,"CN(C)C(=O)c1ccc(-c2ccc3c(c2)CCN(CCN2CCCC2)C3=O)c(F)c1 (as salt: hydrochloride) [Example 137, 3-fluoro-N,N-dimethyl-4-[1-oxo-2-(2-pyrrolidin-1-ylethyl)-1,2,3,4-tetrahydroisoquinolin-6-yl]benzamide]"
12,209 to 210,"CCNC(=O)c1ccc(-c2ccc3c(c2)CCN(CCN2CCCC2)C3=O)c(F)c1 (as salt: hydrochloride) [Example 140, N-ethyl-3-fluoro-4-[1-oxo-2-(2-pyrrolidin-1-ylethyl)-1,2,3,4-tetrahydroisoquinolin-6-yl]benzamide]"
13,158 to 159,"CNC(=O)c1ccc(-c2ccc3c(c2)CCN(CCCN2CCCC2)C3=O)cc1 (as salt: hydrochloride) [Example 141, N-methyl-4-[1-oxo-2-(3-pyrrolidin-1-ylpropyl)-1,2,3,4-tetrahydroisoquinolin-6-yl]benzamide]"
